In EPA's ToxValDB 9.5:

Tested on: Rattus norvegicus
Conditions: oral
[1] = subchronic, gavage, M, Sprague-Dawley, Deaths + Clinical Observation: Diarrhea SalivationSoft feces Decreased locomotor activity BradypneaIncomplete eyelid opening AnorexiaSoiled …
[2] = short-term, duration: 28 days, gavage, M, Sprague-Dawley, Clinical Observation: Yellow-orange urine Soft stool DiarrheaSalivation + Body Weight Changes: decrease + Food Consumption: decrease + …
[3] = short-term, duration: 28 days, gavage, F, Sprague-Dawley, Water Consumption: increase + Urinalysis: Volume increase, Osmolarity decrease, Bil increase + Hematology: RBC decrease300 Hgb decrease300 …
[4] = short-term, duration: 28 days, gavage, M, Sprague-Dawley, Water Consumption: increase + Urinalysis: Volume increase, Osmolarity decrease, Bil increase + Hematology: RBC decrease300 Hgb decrease300 …
[5] = subchronic, gavage, M, Sprague-Dawley, Clinical Observation: Salivation + Urinalysis: Volume increase, Tubular epithelial cell + Blood Chemistry: PL increasegamma-GTP increase, TP…
[6] = subchronic, gavage, M, Sprague-Dawley, Clinical Observation: Salivation Clonic convulsion + Body Weight Changes: Body weight gain decrease + Food Consumption: decrease + Water …
[7] = short-term, duration: 28 days, gavage, F, Sprague-Dawley, Clinical Observation: Piloerection + Urinalysis: pH decrease, K decrease + Relative Organ Weight: Spleen increase
[8] = short-term, duration: 28 days, gavage, M, Sprague-Dawley, Clinical Observation: Piloerection + Urinalysis: pH decrease, K decrease + Relative Organ Weight: Spleen increase

For `BrC1CCC(Br)C(Br)CCC1Br` (stereo unspecified) [1,2,5,6-Tetrabromocyclooctane], the NOEL (subchronic, gavage, M, Sprague-Dawley, Food Consumption: decrease, R (recovery day3) + Blood Chemistry: TP increase, Alb increase + Absolute Organ Weight: Liver increase + …) was under 40 mg/kg-day.

With `CC(C)Nc1ccc(NC(C)C)c2c1C(=O)c1ccccc1C2=O` [1,4-Bis(N-isopropylamino)anthraquinone] the NOEL (subchronic, duration: 42 days, gavage, M, CD(SD), Clinical Observation: Dark purple feces Purple urine Purple colored skin + Urinalysis: Lite purple colored urine Purple colored urine + …) was 12 mg/kg-day.

`C=CCCCC=C(C)C` [1,6-Octadiene, 7-methyl-] gave an NOEL (short-term, duration: 28 days, gavage, M/F, Clinical Observation: Salivation + Blood Chemistry: TG increase) of 10 mg/kg-day.

Work on `BrCCCCCCCCCCBr` [1,10-Dibromodecane-] yielded an NOEL (short-term, duration: 28 days, gavage, M/F, Sprague-Dawley, Clinical Observation: Salivation + Water Consumption: increase + Blood Chemistry: BUN increase, Cl increase + Absolute Organ Weight: Liver …) of under 8 mg/kg-day.

For `CC(C)N1C(=O)C=CC1=O` [1-(Propan-2-yl)-1H-pyrrole-2,5-dione], the NOEL (short-term, duration: 28 days, gavage, M/F, Clinical Observation: Salivation + Organ Weight: Liver increase, Kidney increase + Necropsy: Liver- Enlargement Kidney- Enlargement) was 40 mg/kg-day.

In the case of `O=[N+]([O-])c1ccc(Cl)c([N+](=O)[O-])c1` [1-Chloro-2,4-dinitrobenzene], the NOEL (subchronic, gavage, M, Sprague-Dawley, Relative Organ Weight: Thymus decrease + Histopathology: Stomach/forestomach- Squamous cell hyperplasia Stomach/forestomach -inflammatory …) is reported as 1 mg/kg-day.

`CCCCCl` [1-Chlorobutane] gave an NOEL (subchronic, duration: 13 weeks, gavage, M/F, Fischer 344, Deaths + Clinical Observation: Convulsion + Body Weight Changes: decrease + Histopathology: Spleen-Extramedullary hematopoiesis) of 60 mg/kg-day.

Compound `C=CC(F)(F)C(F)(F)C(F)(F)C(F)(F)C(F)(F)C(F)(F)C(F)(F)C(F)(F)F` [1H,1H,2H-Perfluoro-1-decene] has an NOEL (short-term, duration: 28 days, gavage, M/F, Hematology: Trend of anemia + Blood Chemistry: GOT increase, GPT increase, T-CHO decrease + Absolute Organ Weight: Liver increase + …) of 8 mg/kg-day.

Compound `CC(C)CC(C)(C#N)N=NC(C)(C#N)CC(C)C` (stereo unspecified) [2,2'-Azobis[2,4-dimethylvaleronitrile]] has an NOEL (subchronic, gavage, M, Sprague-Dawley, Clinical Observation: Salivation + Blood Chemistry: gamma- GTP increase, TG decrease + Absolute Organ Weight: Liver increase, R + Relative …) of 10 mg/kg-day.

Compound `CCc1cc(Cc2cc(CC)cc(C(C)(C)C)c2O)c(O)c(C(C)(C)C)c1` [2,2'-Methylenebis(ethyl-6-tert-butylphenol)] has an NOAEL [1] of 30 mg/kg-day and an NOEL [1] of under 30 mg/kg-day.

In the case of `Cc1cc(O)c(C)c(C)c1O` [2,3,5-Trimethylhydroquinone], the NOEL (subchronic, gavage, M, Sprague-Dawley, Deaths + Clinical Observation: Salivation Locomotor activity decrease, Irregular respiration + Body Weight Changes: decrease + Hematology: …) is reported as under 10 mg/kg-day.

In the case of `O=C(c1ccc(Cl)cc1)c1ccccc1Cl` [2,4'-Dichlorobenzophenone], the NOEL (subchronic, gavage, M, Sprague-Dawley, Clinical Observation: Salivation (transient) + Functional Observational Battery: Salivation + Body Weight Changes: Gain decrease(trend) + …) is reported as 40 mg/kg-day.

Compound `CCC(C)c1cc(C(C)(C)C)cc(-n2nc3ccccc3n2)c1O` (stereo unspecified) [2-(2H-Benzotriazol-2-yl)-6-(butan-2-yl)-4-tert-butylphenol] has an NOAEL (subchronic, duration: 42 days, gavage, M, Sprague-Dawley, Hematology: HGB decrease + Blood Chemistry: TP increase, Alb increase, A/G increase, ALP increase, ChE increase + Absolute Organ Weight: …) of 4 mg/kg-day and an NOEL (subchronic, gavage, M, Sprague-Dawley, Blood Chemistry: TG decrease PL decrease Alb increase A/G increase Alp increase + Absolute Organ Weight: Liver increase + Relative Organ …) of under 0.5 mg/kg-day.

For `Nc1cc([N+](=O)[O-])ccc1O` [2-Amino-4-nitrophenol], the NOAEL [2] was under 150 mg/kg-day, the NOEL [2] was under 150 mg/kg-day and the NOEL (subchronic, duration: 13 weeks, gavage, M/F, Fischer 344, Deaths + Body Weight Changes: decrease + Absolute Organ Weight: Liver increase + Relative Organ Weight: Liver increase + Histopathology: …) was 125 mg/kg-day.

`Cl.Nc1ccccc1-c1ccccc1` [2-Biphenylamine hydrochloride] gave an NOEL (subchronic, duration: 13 weeks, diet, M/F, Fischer 344, Histopathology: Spleen-Congestion Spleen-Extramedullary hematopoiesis Spleen-Hemosiderosis Spleen-Thickened capsule Spleen-Lymphoid atrophy …) of 28.8 mg/kg-day.

`Nc1ccccc1-c1ccccc1` [2-Biphenylamine] gave an LOEL [3] of 30 mg/kg-day, an NOEL [3] of under 30 mg/kg-day and an LOEL [4] of 100 mg/kg-day. The NOEL [4] was 30 mg/kg-day.

In the case of `CCCCC(CC)(CO)CO` [2-Butyl-2-ethyl-1,3-propanediol], the NOAEL (subchronic, gavage, M, Sprague-Dawley, Clinical Observation: Staggering gait + Water Consumption: increase + Urinalysis: pH decrease + Hematology: LYMPH increase, NEUT decrease + …) is reported as 20 mg/kg-day.

`OCC#CCO` [2-Butyne-1,4-diol] gave an NOEL (short-term, duration: 28 days, gavage, M/F, Wistar, Deaths + Body Weight Changes: decrease + Food Consumption: decrease + Hematology: RET increase, WBC increase, Neut increase, Lymph increase…) of 1 mg/kg-day.

With `Nc1ccccc1Cl` [2-Chloroaniline] the NOEL (subchronic, gavage, M/F, Fischer 344, Deaths + Clinical Observation: Tremors Wasting Bluish discoloration of genital and footpad regions + Body Weight Changes: decrease + …) was under 10 mg/kg-day.

Work on `CCc1ccccc1N` [2-Ethylaniline] yielded an NOEL (subchronic, duration: 42 days, gavage, M, CD(SD), Hematology: RBC decrease, HGB decrease, MCV increase, MCH increase, MCHC decrease, RET increase + Blood Chemistry: Alb increase A/G …) of 3 mg/kg-day.

With `CCCCCCCC1CCCC1=O` (stereo unspecified) [2-Heptylcyclopentanone] the NOAEL [5] was 200 mg/kg-day and the NOEL [5] was 50 mg/kg-day.

With `S=c1[nH]c2ccccc2[nH]1` [2-Mercaptobenzimidazole] the NOEL (short-term, duration: 28 days, gavage, M/F, Wistar, Body Weight Changes: decrease + Food Consumption: decrease + Hematology: Hct decrease, Plt decrease, WBC decrease, APTT increase + Blood …) was under 2 mg/kg-day.

With `CCCCCCOCCOCCO` [2-[2-(Hexyloxy)ethoxy]ethanol] the NOAEL (subchronic, duration: 53 days, diet, M, SD(CD), Body Weight Changes: Mean body weight decrease + Food Consumption: decrease + Urinalysis: pH decrease + Relative Organ Weight: Liver …) was 300 mg/kg-day.

Work on `CC(=O)OC1CCCCC1C(C)(C)C` (stereo unspecified) [2-tert-Butylcyclohexyl acetate] yielded an NOAEL [6] of under 50 mg/kg-day and an NOEL [6] of under 50 mg/kg-day.

With `O=[N+]([O-])c1ccc(Cl)c(Cl)c1` [3,4-Dichloronitrobenzene] the NOEL (subchronic, gavage, M, Sprague-Dawley, Hematology: RBC decrease, Hct decrease, MCV increase, MCH increase, Hgb decrease, MCHC decrease, Ret increase + Blood Chemistry: T-Bil: …) was under 4 mg/kg-day.

Compound `O=C1CCc2ccccc2O1` [3,4-Dihydrocoumarin] has an NOEL (subchronic, duration: 13 weeks, gavage, M/F, Fischer 344, Deaths + Body Weight Changes: decrease + Hematology: Plt decrease, Hct decrease, Hgb decrease, RBC decrease, WBC decrease, Lympho decrease…) of under 75 mg/kg-day.

`CSCCC=O` [3-(Methylthio)propanal] showed an NOAEL (short-term, duration: 28 days, gavage, M/F, Wistar, Body Weight Changes: Mean body weight decrease, Weight gain decrease + Hematology: RBC decrease, HGB decrease + Blood Chemistry: T-Bil …) of 104 mg/kg-day.

`Nc1nc(=S)[nH][nH]1` [3-Amino-1,2,4-triazole-5-thiol] was tested, and the NOEL (subchronic, gavage, M/F, Sprague-Dawley, Deaths + Clinical Observation: White turbid urine SalivationSoft stool + Body Weight Changes: decrease + Food Consumption: decrease + …) was 10 mg/kg-day.

Compound `O=C(O)c1cccc([N+](=O)[O-])c1C(=O)O` [3-Nitrophthalic acid] has an NOAEL [7] of 500 mg/kg-day, an NOEL [7] of 500 mg/kg-day and an LOEL [8] of 500 mg/kg-day. For the same compound, the NOAEL [8] was 500 mg/kg-day and the NOEL [8] was 100 mg/kg-day.

`ClCc1ccc(-c2ccc(CCl)cc2)cc1` [4,4'-Bis(chloromethyl)-1,1'-biphenyl] was tested, and the NOEL (subchronic, gavage, Sprague-Dawley) was 1000 mg/kg-day.

In the case of `Cc1ccc(Nc2ccc(C)cc2)cc1` [4,4'-Dimethyldiphenylamine], the NOEL (short-term, duration: 28 days, gavage, M/F, Clinical Observation: Salivation + Blood Chemistry: GOT increase, GPT increase, gamma-GTP increase, T-CHO increase, TG increase, IP …) is reported as 30 mg/kg-day.

Compound `CC(C)(C1CCC(O)CC1)C1CCC(O)CC1` (stereo unspecified) [4,4'-Propane-2,2-diyldicyclohexanol] has an NOEL (subchronic, gavage, M, Sprague-Dawley, Hematology: APTT increase, PT increase + Blood Chemistry: TG increase, TP increase, Ca increasegamma-GTP increase, Glu decrease, Cho …) of 20 mg/kg-day.

In the case of `COc1cc(N)ccc1NC(=O)c1ccc(N)cc1` [4-Amino-N-(4-amino-2-methoxyphenyl)benzamide], the NOEL (short-term, duration: 28 days, gavage, M/F, Deaths + Clinical Observation: Locomotor activity increase, Tremor (temporary)Loss of righting reflex Motor ataxia Lethargy (severe) + Blood…) is reported as 10 mg/kg-day.
